Where two headings read alike, the source gives them in different places.
Legend:
[1] = molecular target: CYP 3A4 enzyme in human liver microsomes (Homo sapiens, UniProt P08684); assay: CYP3A4 inhibition experiment in human liver microsomes
Protocol: The inhibitory effects of the test compounds on CYP 3A4T (with testosterone as substrate) and 3A4M (with midazolam as substrate) in human liver microsomes were evaluated in vitro to assess the medication safety of the compounds.
This study used the human liver microsome system and the cytochrome P450 enzyme probe substrate recommended by FDA guidelines for in vitro drug interaction studies to investigate the inhibition of the CYP 3A4 enzyme in human liver microsomes by the test compounds.
Test group (TG): Human liver microsomes were incubated with different concentrations of test compounds, NADPH (final concentration 2.00 mM) and probe substrates of different sub-enzymes (Table 4) for 5 min.
Positive control group (PC): Human liver microsomes were incubated with inhibitors (Table 4), NADPH (final concentration 2.00 mM) and probe substrates of different sub-enzymes (Table 4) for 5 min. Table 4 Probe substrates of sub-enzymes, inhibitors and incubation systems
The system was pre-incubated at 37°C for 5 min, and then 15 µL of 8 mM NADPH solution preheated at 37°C for 5-10 min to start the reaction. After incubation of the 96-well plate at 37°C for 5 min, 180 µL of acetonitrile:methanol (ACN:MeOH=1:1) solution containing internal standard (IS) was added to terminate the reaction. […] 80 µL of the supernatant was taken, added to 120 µL of ultrapure water, shaken evenly, and then detected by LC-MS/MS.
199 µL of 0.2 mg/mL HLM and 1 µL of 1 mM positive control inhibitor (ketoconazole) working solutions were taken and mixed evenly. 30 µL of the drug-containing liver microsome solution was taken and added to a 96-well plate, then 10 µL of substrate working solution (20 µM midazolam) was added, in duplicate. The system was pre-incubated at 37°C for 5 min, and then 15 µL of 8 mM NADPH solution preheated at 37°C for 5-10 min to start the reaction. After incubation of the 96-well plate at 37°C for 5 min, 180 µL of ACN:MeOH(1:1) solution containing IS was added to terminate the reaction. […] 80 µL of the supernatant was taken, added to 120 µL of ultrapure water, shaken evenly, and then detected by LC-MS/MS.
4.2.5.1 The relative activity of CYP450 sub-enzymes at different concentrations was calculated by dividing the peak area ratio (analyte peak area/internal standard peak area) of metabolites in the presence of the test sample or positive control by the peak area ratio of metabolites in the solvent control sample in the absence of the test article or positive control, according to the following formula: [formula] [formula]
4.2.5.2 Half maximal inhibitory concentration (IC50) was obtained by fitting according to the following model formula using Prism software: Y = Bottom + (Top−Bottom)/(1+10^(∧)((LogIC50−X)×HillSlope)) [formula]
X is the test sample concentration converted to logarithm (Log µM), Y is the relative activity (% of NC), Bottom and Top represent the percentage of enzyme activity at the bottom platform and top platform of the curve, respectively, and HillSlope represents the slope; to optimize the fitting effect, the use of other (nonlinear) dose-response models for fitting is not considered as a deviation from the protocol.

[2] = molecular target: T1, p53-Y220C mutant protein (Homo sapiens, UniProt P04637, Y220C); assay: In vitro DNA binding activity assay (TR-FRET); assay type: biochemical; settings: concentration required to increase the binding activity of protein to DNA by 50%
T1 construct: The recombinant Y220C p53 DBD protein with his-tag
Outline: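 SC150, the compound concentration increasing p53-Y220C DNA binding by 50% relative to vehicle, came from background-corrected 665/615 nm TR-FRET ratios. His-tagged DBD and compound were preincubated 60 min at RT before biotin-DNA plus Eu-anti-His/streptavidin-d2 detection overnight in the dark.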

[3] = system: NUGC-3 cells; assay: NUGC-3 cell proliferation assay (CTG, 7 days); assay type: cell-based, human
Outline: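 Cells (200/well) in 1640 medium with 10% serum exposed to 10-point, 3-fold DMSO dilutions (duplicates) for 7 days at 37°C. Viability read by CellTiter-Glo luminescence; % inhibition normalized to DMSO and blank, IC50 from variable-slope nonlinear fit.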

[4] = CYP 3A4M IC50, human liver microsomes, midazolam as substrate
[5] = CYP 3A4T IC50, human liver microsomes, testosterone as substrate
[6] = Homo sapiens, NUGC-3, 168 h, NUGC-3 cell proliferation, 7 days, CTG, read-out: IC50

Sequence of CYP 3A4 enzyme in human liver microsomes (P08684 whole entry): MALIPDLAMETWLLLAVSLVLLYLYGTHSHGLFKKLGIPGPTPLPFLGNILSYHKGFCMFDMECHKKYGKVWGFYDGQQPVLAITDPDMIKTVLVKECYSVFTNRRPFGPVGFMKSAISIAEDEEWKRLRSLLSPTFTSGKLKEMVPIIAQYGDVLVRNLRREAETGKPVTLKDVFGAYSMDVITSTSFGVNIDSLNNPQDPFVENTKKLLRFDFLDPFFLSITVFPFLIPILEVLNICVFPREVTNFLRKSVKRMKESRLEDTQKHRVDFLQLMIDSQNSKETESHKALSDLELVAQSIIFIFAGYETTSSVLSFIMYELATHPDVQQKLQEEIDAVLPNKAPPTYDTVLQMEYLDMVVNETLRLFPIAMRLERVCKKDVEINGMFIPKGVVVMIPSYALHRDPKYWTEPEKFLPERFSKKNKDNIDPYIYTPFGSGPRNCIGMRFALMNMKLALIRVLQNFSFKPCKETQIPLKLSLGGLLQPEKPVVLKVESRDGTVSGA

Structure (SMILES)	IC50 [1, 4]	IC50 [1, 5]	SC150 [2]	IC50 [3, 6]	IC50 ([3]; NUGC-3 cell proliferation, 7 days, CTG, read-out: IC50)	IC50 ([3]; Homo sapiens, NUGC-3, 168 h)
CC(n1ncc(C(=O)NCC#Cc2nn3c(N[C@@H]4CCN(C)C[C@@H]4F)cccc3c2CC(F)(F)F)c1N)C(F)(F)F (single isomer, unassigned) [Compound 355A]	> 30 µM	14.1 µM	7 nM	167 nM		
CC(n1ncc(C(=O)NCC#Cc2nn3c(N[C@@H]4CCN(C)C[C@@H]4F)cccc3c2CC(F)(F)F)c1N)C(F)(F)F (single isomer, unassigned) [Compound 355B]	12.5 µM	13.7 µM	16 nM		154 nM	
CCn1cc(C(=O)NCC#Cc2nn3c(N[C@@H]4CCN(C)C[C@@H]4F)cccc3c2CC(F)(F)F)cn1 [Compound 004, 1-ethyl-N-[3-(7-{[(3S,4R)-3-fluoro-1-methylpiperidin-4-yl]amino}-3-(2,2,2-trifluoroethyl)pyrazolo[1,5-a]pyridin-2-yl)prop-2-yn-1-yl]-1H-pyrazole-4-carboxamide]	> 30 µM	> 30 µM	6 nM			
COC(C)(C)Cn1cc(C(=O)NCC#Cc2nn3c(N[C@@H]4CCN(C)C[C@@H]4F)cccc3c2CC(F)(F)F)cn1 [Compound 039, N-[3-(7-{[(3S,4R)-3-fluoro-1-methylpiperidin-4-yl]amino}-3-(2,2,2-trifluoroethyl)pyrazolo[1,5-a]pyridin-2-yl)prop-2-yn-1-yl]-1-(2-methoxy-2-methylpropyl)-1H-pyrazole-4-carboxamide]	20.2 µM	27.8 µM	10 nM			
CN1CC[C@@H](Nc2cccc3c(CC(F)(F)F)c(C#CCNC(=O)c4ccn(C(C)(C)C)c4)nn23)[C@@H](F)C1 [Compound 087, 1-(tert-butyl)-N-(3-(7-{[(3S,4R)-3-fluoro-1-methylpiperidin-4-yl]amino}-3-(2,2,2-trifluoroethyl)pyrazolo[1,5-a]pyridin-2-yl)prop-2-yn-1-yl)-1H-pyrrole-3-carboxamide]	> 30 µM	> 30 µM	19 nM	1370 nM		
CN1CC[C@@H](Nc2cccc3c(CC(F)(F)F)c(C#CCNC(=O)c4cnn5c4CC(C)(C)C5)nn23)[C@@H](F)C1 [Compound 146, N-[3-(7-{[(3S,4R)-3-fluoro-1-methylpiperidin-4-yl]amino}-3-(2,2,2-trifluoroethyl)pyrazolo[1,5-a]pyridin-2-yl)prop-2-yn-1-yl]-5,5-dimethyl-5,6-dihydro-4H-pyrrolo[1,2-b]-1Hpyrazole-3-carboxamide]	9.7 µM	10.5 µM	13 nM			955 nM
CN1CC[C@@H](Nc2cccc3c(CC(F)(F)F)c(C#CCNC(=O)c4cnn(C5(C)CC5)c4N)nn23)[C@@H](F)C1 [Compound 263, 5-amino-N-[3-(7-{[(3S,4R)-3-fluoro-1-methylpiperidin-4-yl]amino}-3-(2,2,2-trifluoroethyl)pyrazolo[1,5-a]pyridin-2-yl)prop-2-yn-1-yl]-1-(1-methylcyclopropyl)-1H-pyrazole-4-carboxamide]	> 30 µM	16.4 µM	4 nM	268 nM		
CN1CC[C@@H](Nc2cccc3c(CC(F)(F)F)c(C#CCNC(=O)c4cnn5c4COCC5)nn23)[C@@H](F)C1 [Compound 274, N-[3-(7-{[(3S,4R)-3-fluoro-1-methylpiperidin-4-yl]amino}-3-(2,2,2-trifluoroethyl)pyrazolo[1,5-a]pyridin-2-yl)prop-2-yn-1-yl]-6,7-dihydro-4H-pyrazolo[5,1-c][1,4]oxazine-3-carboxamide]	> 30 µM	> 30 µM	12 nM	611 nM		
CN1CC[C@@H](Nc2cccc3c(CC(F)(F)F)c(C#CCNC(=O)c4ccc(N5CCOCC5)nc4)nn23)[C@@H](F)C1 [Compound 275, N-[3-(7-{[(3S,4R)-3-fluoro-1-methylpiperidin-4-yl]amino}-3-(2,2,2-trifluoroethyl)pyrazolo[1,5-a]pyridin-2-yl)prop-2-yn-1-yl]-(6-morpholin-4-yl)pyridine-3-carboxamide]	> 30 µM	> 30 µM	27 nM	901 nM		
CN1CC[C@@H](Nc2cccc3c(CC(F)(F)F)c(C#CCNC(=O)c4cnn5c4CCCC5)nn23)[C@@H](F)C1 [Compound 276, N-[3-(7-{[(3S,4R)-3-fluoro-1-methylpiperidin-4-yl]amino}-3-(2,2,2-trifluoroethyl)pyrazolo[1,5-a]pyridin-2-yl)prop-2-yn-1-yl]-4,5,6,7-tetrahydropyrazolo[1,5-a]pyridine-3-carboxamide]	17.4 µM	> 30 µM	18 nM	856 nM		
CCn1ccc(C(=O)NCC#Cc2nn3c(N[C@@H]4CCN(C)C[C@@H]4F)cccc3c2CC(F)(F)F)c1 [Compound 277, 1-ethyl-N-[3-(7-{[(3S,4R)-3-fluoro-1-methylpiperidin-4-yl]amino}-3-(2,2,2-trifluoroethyl)pyrazolo[1,5-a]pyridin-2-yl)prop-2-yn-1-yl]-1H-pyrrole-3-carboxylic acid amide]	12.4 µM	15.8 µM	14 nM			726 nM
CCc1ccc(C(=O)NCC#Cc2nn3c(N[C@@H]4CCN(C)C[C@@H]4F)cccc3c2CC(F)(F)F)cn1 [Compound 331, 6-ethyl-N-[3-(7-{[(3S,4R)-3-fluoro-1-methylpiperidin-4-yl]amino}-3-(2,2,2-trifluoroethyl)pyrazolo[1,5-a]pyridin-2-yl)prop-2-yn-1-yl]pyridine-3-carboxamide]			36 nM	1720 nM		
Cc1ccc(C(=O)NCC#Cc2nn3c(N[C@@H]4CCN(C)C[C@@H]4F)cccc3c2CC(F)(F)F)cn1 [Compound 332, N-[3-(7-{[(3S,4R)-3-fluoro-1-methylpiperidin-4-yl]amino}-3-(2,2,2-trifluoroethyl)pyrazolo[1,5-a]pyridin-2-yl)prop-2-yn-1-yl]-6-methylnicotinamide]			29 nM	1710 nM		
CCC(C)(C)n1ncc(C(=O)NCC#Cc2nn3c(N[C@@H]4CCN(C)C[C@@H]4F)cccc3c2CC(F)(F)F)c1N [Compound 351]	18.1 µM	22 µM	7 nM			
CC(C)(C)n1ncc(C(=O)NCC#Cc2nn3c(N[C@@H]4CCNC[C@@H]4F)cccc3c2CC(F)(F)F)c1N [Compound 353-4, 5-amino-1-tert-butyl-N-[3-(7-{[(3S,4R)-3-fluoropiperidin-4-yl]amino}-3-(2,2,2-trifluoroethyl)pyrazolo[1,5-a]pyridin-2-yl)prop-2-yn-1-yl]-1H-pyrazole-4-carboxamide]			9 nM	181 nM		
CCN1CC[C@@H](Nc2cccc3c(CC(F)(F)F)c(C#CCNC(=O)c4cnn(C(C)C)c4N)nn23)[C@@H](F)C1 [Compound 365, 5-amino-N-(3-(7-{[(3S,4R)-1-ethyl-3-fluoropiperidin-4-yl]amino}-3-(2,2,2-trifluoroethyl)pyrazolo[1,5-a]pyridin-2-yl)prop-2-yn-1-yl)-1-isopropyl-1H-pyrazole-4-carboxamide]			5 nM	127 nM		

From patent publication EP4737449A1 (Changchun Genescience Pharmaceutical Co., Ltd., priority 2023, dated 2025)
